For `O=C(CBr)CC(=O)Nc1cccc(C(F)(F)F)c1`, the melting point lay in the range of 66 to 68 °C.

Compound `O=C(c1ccn2c1CSC2c1cccnc1)c1c[nH]c2cc(Cl)ccc12` (configuration not stated) displayed a melting point of 263 to 265 °C.

In turn, `CCn1c(=O)oc2cc([N+](=O)[O-])cc(F)c21` showed a melting point of 121 to 122 °C.

In the case of `Clc1ccc(-c2cc(C3CCN(Cc4ccc(Cl)c(Cl)c4)CC3)n[nH]2)cc1`, the melting point was in the range of 171 to 174 °C.

`CCCCCCCCCCOc1cc(OCCCCCCCCCC)cc(C(=O)O)c1`: the melting point was in the range of 56 to 58 °C.

`COc1ccc(NC(=O)c2ccc(C#N)cc2)cc1` displayed a melting point of 155 to 157 °C.

In turn, `Fc1cccc(F)c1C1=NC(c2ccc(I)cc2)CO1` (configuration not stated) showed a melting point of 105 to 106 °C.

`O=C(Nc1ccc(-n2nc(-c3cccnc3)cc2C(F)F)cc1)c1ccncc1F` registered a melting point of 176 to 178 °C.

`CCCCNc1nc2cc(C)nn2c2c1cnc1c2cnn1CC` yielded a melting point of 160 to 162 °C.

Consider `COc1cc2ncc(C#N)c(Nc3ccc(O)cc3Cl)c2cc1OC`, for which the melting point was over 250 °C.

Compound `COc1cc(-c2nc(NCC(C)C)c3c(C)c(C#N)sc3n2)cc(OC)c1OC` had a melting point of 182 to 184 °C.

In the case of `C/C(=C(\C#N)C(N)=S)N1CCCN(c2cccc([N+](=O)[O-])c2)CC1`, the melting point lay in the range of 157 to 158 °C.

With `CCCCCCCCCOc1ncc(-c2ccc(O)cc2)cn1`, the melting point is 89 to 90 °C.

`COc1ccc(Nc2ccccc2)c2ccccc12` displayed a melting point of 108 to 110 °C.

For the compound `O=S(=O)(Cl)c1ccc2oc3cc(Br)ccc3c2c1`, the melting point lay in the range of 191 to 193 °C.

For the compound `O=C1CCC(c2ccc(-c3cccnc3)cc2)=NN1`, the melting point was in the range of 225 to 226 °C.

`C=CCc1c(O)ccc2c1ccc(=O)n2CC=C` returned a melting point of 205 to 206 °C.

The compound `COc1cc2c(cc1S(=O)(=O)Cl)CCC2` came in with a melting point of 75 to 77 °C.

With `N=C(N)NCCOc1ccc2c(c1)NC(=O)C(CCC(=O)O)C2` (configuration not stated), the melting point was in the range of 193 to 196 °C.

Turning to `COc1ccc(N2CCN(c3cc(C)c4c(c3C)CC(C)(C)O4)CC2)cc1`, the melting point was in the range of 174 to 175 °C.

As for `O=C(Nc1nccs1)C1C(=O)Sc2cc(Cl)ccc21` (configuration not stated), the melting point lay within 276 to 289 °C.

Consider `Cc1nc(=O)[nH]c2ccc(Cl)cc12`, for which the melting point is over 270 °C.

Take `Cc1cc(C2CCC2)n2nc(S(=O)(=O)Nc3c(Cl)cccc3Cl)nc2n1`: the melting point was found to be 260 °C.

In turn, `CCOC(=O)NCCN1CCC(NC(=O)c2cc(Cl)c(N)c3c2OCCC3)CC1` came in with a melting point of 160 °C.

Compound `CCCCCCC(=N)NC(=S)Nc1ccc(C)cc1Cl` showed a melting point of 78 to 80 °C.

In the case of `COC(=O)c1ccccc1NC(=O)CNc1ccccc1Br`, the melting point was in the range of 89 to 91 °C.

`COc1c(Cl)ccc(C2=NC(C)(C)CO2)c1SC` gave a melting point of 50 to 52 °C.

`COC(=O)c1cccc(NC(=O)NCC(=O)O)c1` registered a melting point of 215 °C.

In the case of `CCCC1CCCN(C(=O)C2Cc3ccccc3N2c2ccc(=O)n(C)n2)C1` (configuration not stated), the melting point fell in the range of 106 to 110 °C.

In turn, `Cc1ccc(S(=O)(=O)N2C[C@H]3C[C@@H]2CN3Cc2ccccc2)cc1` registered a melting point of 124 °C.

The compound `CC#CCn1nc(-c2ccc(F)cc2)c(-c2ccc(S(C)(=O)=O)cc2)cc1=O` displayed a melting point of 81 to 82 °C.

The compound `CCOC(=O)c1cn(C2CC2)c2c(F)c(N3CCN(C)CC3)c(F)c([Si](C)(C)C)c2c1=O` displayed a melting point of 231 to 233 °C.

Take `CN(C)CCCOc1ccc(C(=O)c2c(-c3ccccc3)oc3ccccc23)cc1`: the melting point fell in the range of 85 to 95 °C.

Take `NS(=O)(=O)OCCOc1ccc(Cl)cc1`: the melting point lay within 117 to 119 °C.

`CC(C)c1ccc(S(=O)(=O)n2c(C(O)c3cccc(C(=O)O)c3)cc3cc(Cl)ccc32)cc1` (configuration not stated) showed a melting point of 97 °C.

For `CC(=O)NCCCC(=O)N1CCCC2=C1CCc1cc(Cl)ccc12`, the melting point lay in the range of 142 to 143 °C.

The compound `COc1ccc(Sc2ccc(NC(=N)N)cc2)cc1` had a melting point of 140 to 141 °C.

Broadly, the melting point is the temperature of the solid-liquid transition.

(Values after a melting point compilation (Tetko et al.; mined from patent text by program, amines drawn as free bases though some values may be those of a salt).)
